The values below come from US8685455B2, “Oil-in-water emulsions containing lignan-class compounds and compositions containing the same” (Suntory Holdings Limited, priority 2005, dated 2014).

This data set is described as follows: Solubilities of sesamin, episesamin and their mixture in various oils or fats. The data set is classed as physicochemical. How it is done: To prepare the lignan-class compound containing emulsion of the present invention, liquid in which a lignan-class compound is dissolved (oil phase) is first prepared. As already mentioned, a sesame oil or the like may be used as the liquid, alternatively, the liquid may be prepared by adding a powdered form of lignan-class compound to a solvent oil or fat, mixing the mixture, and fully dissolving the powdered form to the solvent while agitating the mixture while heating. The blending ratio between the lignan-class compound and the fat or oil varies with the type of the lignan-class compound and the fat, or oil that serves as a solvent and it can be set appropriately in consideration of this fact. The assignees of the subject application have discovered that two lignan-class compounds, sesamin and episesamin, and a mixture thereof had different solubilities in different fats or oils (see Table 1).

`c1cc2c(cc1[C@H]1OC[C@H]3[C@@H]1CO[C@@H]3c1ccc3c(c1)OCO3)OCO2` [Episesamin, episesamin]: the “Solubilities (%) in DG” value is 1.0%, the “Solubilities (%) in MCT-1” value came to 2.5%, the “Solubilities (%) in MCT-2” value is on record as 2.5% and the “Solubilities (%) in Olive oil” value was found to be 0.5%. Moreover, the “Solubilities (%) in Wheat germ oil” value is given as 0.75%.

For `c1cc2c(cc1[C@H]1OC[C@H]3[C@@H]1CO[C@@H]3c1ccc3c(c1)OCO3)OCO2` [Sesamin, sesamin], the “Solubilities (%) in DG” value was determined as 1.25%, the “Solubilities (%) in MCT-1” value is given as 4.0%, the “Solubilities (%) in MCT-2” value amounted to 2.0% and the “Solubilities (%) in Olive oil” value is given as 0.75%. In addition, the “Solubilities (%) in Wheat germ oil” value was 0.75%.
